One block for each compound: values may come before it.
Key:
QGP-1 cells = experiment: 5-HT production in QGP-1 cells; format: cell-based, human; settings: 25-200 μM, 24 hours, FIG. 10D-E
Protocol: (§1) QGP-1 cells were cultured in RPMI 1640 medium supplemented with 10% fetal bovine serum (FBS). QGP-1 is a human pancreatic endocrine cell line that produces 5-HT. To evaluate the effects of phenylalanine, phenethylamine, and phenylacetic acid on 5-HT production, QGP-1 cells were treated with or without phenylalanine, phenethylamine, and phenylacetic acid at the indicated concentrations and times.
(§2) An Agilent 1290 Infinity II UPLC system coupled to a triple quadrupole (QQQ) 6470 mass spectrometer was used for targeted metabolomics profiling. A Waters BEH 2.1×50 mm C18 1.7 μm column with a pre-column was used. The mobile phase used in LC-MS-QQQ was solution A (water with 0.1% formic acid) and solution B (acetonitrile with 0.1% formic acid). The gradients were set as 2% B (0-0.5 min), 2%-30% B (0.5-4 min), […] B (4-6 min), 100% B (6-8 min), 100%-2% B (8-8.1 min) and maintain in 2% B (8.1-10 min). The MS data were collected and processed using Agilent software. The standard list, MRM transition, fragmentor, and collision energy are listed in (Table 3).

5-HTR4 = target: T1, 5-HTR4 (Homo sapiens, UniProt Q13639); experiment: 5-HTR4 antagonist Piboserod on phenethylamine/tryptamine-stimulated 5-HT in QGP-1 cells; format: cell-based; settings: 24 hours, FIG. 11M
T1 construct: endogenous in cells; host or cells: QGP-1
Protocol: as §1

TAAR1 [1] = target: T2, TAAR1 (Mus musculus, UniProt Q923Y8); experiment: TAAR1 antagonist EPPTB in phenethylamine-treated mice; format: in vivo; settings: EPPTB 10 mg/kg, phenethylamine 10 mg/kg, p<0.05
T2 construct: is expressed in EC cells in the GI tract; from tissue; host or cells: living mice (conventional, antibiotic-treated, or wild-type littermates of Taar1 KO, C57Bl/6J)
Protocol: (§3) To study phenethylamine and tryptamine effects on 5-HT production, phenethylamine and tryptamine at a dosage of 2 mg/kg, 5 mg/kg and 10 mg/kg (dissolved in 0.5% CMC-Na, sodium carboxymethyl cellulose) were administered to mice by oral gavage. Mice treated with/without phenethylamine and tryptamine were sacrificed under isoflurane anesthesia. Biological samples including serum, duodenum, ileum, proximal colon and distal colon tissues and luminal contents in each intestinal segments were collected at indicated dosages and times and stored at −80° C. until analysis.
(§4) For the fecal pellet water content test, 1.5 mL Eppendorf tubes were pre-weighed and used to collect fecal pellets from mice immediately after defecation. The tubes were then closed to measure wet weight. Afterward, the tubes were opened and placed in an oven at 60° C. overnight to measure the dry weight. Fecal pellet water content was measured by subtracting the dry weight from the wet weight and normalizing it to the wet pellet mass. Fecal pellets from mice were also counted within 2 h of the defecation frequency test.
(§5) Carmine red assay: Mice were administered 300 μL of 6% carmine red solution (prepared by 0.5% methylcellulose) by oral gavage to measure the GI transit time after treatment with phenethylamine at the indicated dosages. The mice were placed on white sheet paper to track the red pellet in their cages after oral gavage. The total time taken for the appearance of the first red pellet after oral gavage was recorded as gut transit time.
(§6) Colonic tissues were lysed in RIPA buffer containing protease inhibitor cocktails in a tissuelyzer. The tissue lysates were centrifuged at 15,000 rpm for 15 min at 4° C. and quantified by BCA kit for protein concentration. The protein content normalized supernatant was mixed with 5× loading buffer and heated at 98° C. in a dry bath for 10 min. The samples were evaluated according to the western blotting protocol (Abcam). The blots were incubated with HRP-conjugated anti-rabbit IgG or anti-mouse IgG and reacted with enhanced chemiluminescence.

TAAR1 [2] = target: T2, TAAR1; experiment: EPPTB on phenethylamine-induced 5-HT elevation in mice intestine tissues cultured ex vivo; format: cell-based; settings: EPPTB 50 μM, p<0.05, FIG. 5I
Protocol: (§7) Mouse and human colonic tissues were collected as previously described. To investigate the effects of phenethylamine on 5-HT levels in mouse and human colon tissues, the colonic tissues were cut into small pieces (0.5 cm) and placed in a 12-well cell culture plate. Colon pieces were added to DMEM/F12 medium containing 5% fetal bovine serum, penicillin-streptomycin (1×), and gentamycin (20 μg/ml), followed by treatment with phenethylamine and EPPTB, as indicated. Colon pieces were incubated at 37° C. with 5% CO2 and 95% air. A 200 μL volume of medium was collected from each well at the indicated time points for the analysis of 5-HT.

TAAR1 [3] = target: T2, TAAR1; experiment: EPPTB in antibiotic-treated mice colonized with R. gnavus (ATCC 29149); format: in vivo; settings: EPPTB 10 mg/kg, p<0.05
Protocol: A broad-spectrum antibiotic mixture (ABX) containing vancomycin (100 mg/kg), neomycin (200 mg/kg), metronidazole (200 mg/kg), and ampicillin (200 mg/kg) was used to establish an antibiotic-treated mouse model. Briefly, the antibiotic mixture was administered to mice by oral gavage for 10 consecutive days prior to fecal microbial transplantation (FMT) or the colonization study.
R. gnavus (strain ATCC 29149) was first grown on tryptic soy broth (TSB) agar plates and cultured in TSB broth using a single colony. R. gnavus (strain ATCC 29149) was collected from the medium by centrifuging at 3,500 rpm for 10 min at room temperature. These bacterial strains were then reconstituted in 200 μL of sterilized phosphate-buffered saline and administered to antibiotic-treated mice by oral gavage. Fecal samples were collected daily to measure fecal phenethylamine levels in antibiotic-treated mice before and after oral administration of bacterial strains.
as §4, §5

TAAR1 [4] = target: T2, TAAR1; experiment: EPPTB in antibiotic-treated mice transplanted with IBS-D fecal microbiota (FMT); format: in vivo; settings: EPPTB 10 mg/kg, p<0.05
Protocol: A broad-spectrum antibiotic mixture (ABX) containing vancomycin (100 mg/kg), neomycin (200 mg/kg), metronidazole (200 mg/kg), and ampicillin (200 mg/kg) was used to establish an antibiotic-treated mouse model. Briefly, the antibiotic mixture was administered to mice by oral gavage for 10 consecutive days prior to fecal microbial transplantation (FMT) or the colonization study. For the fecal pellet water content test, 1.5 mL Eppendorf tubes were pre-weighed and used to collect fecal pellets from mice immediately after defecation. The tubes were then closed to measure wet weight. Afterward, the tubes were opened and placed in an oven at 60° C. overnight to measure the dry weight. Fecal pellet water content was measured by subtracting the dry weight from the wet weight and normalizing it to the wet pellet mass. Fecal pellets from mice were also counted within 2 h of the defecation frequency test. Carmine red assay: […] The mice were placed on white sheet paper to track the red pellet in their cages after oral gavage. The total time taken for the appearance of the first red pellet after oral gavage was recorded as gut transit time. Fecal samples from IBS-D patients and HC participants (n=8/group) were prepared as suspensions in PBS at a concentration of (100 mg/mL). […] After the FMT, GI transit, stool consistency, and defecation frequency were measured. […]

mouse intestinal tissues = experiment: 5-HT production in mouse intestinal tissues cultured ex vivo; format: cell-based; settings: 25 μM and 50 μM, p<0.05, FIG. 4A-B
Protocol: as §7, §2

human colonic tissues = experiment: 5-HT production in human colonic tissues cultured ex vivo; format: cell-based; settings: 50 μM, p<0.05, FIG. 10A
Protocol: as §7, §2

5-HT production = experiment: Oral phenethylamine/tryptamine administration in mice: 5-HT levels, GI transit, fecal water content; format: in vivo, mouse; settings: for GI transit / fecal water content / serum and intestinal 5-HT levels: mice, oral administration, 2, 5 and 10 mg/kg, p<0.01
Protocol: as §2, §3, §4, §5

[5] = Phenethylamine level in intestinal tissues and luminal content after oral gavage; format: in vivo, mouse; settings: for concentration at 0 min / concentration at 15 min / concentration at 30 min: mouse, oral
Protocol: as §2, §3

PKA and CaMKII = experiment: Western blot of PKA and CaMKII phosphorylation in colonic tissues of phenethylamine-treated mice; format: in vivo, mouse; settings: colonic tissues of mice, 2, 5 and 10 mg/kg, p<0.05
Protocol: as §3, §6

TAAR1 [6] = target: T2, TAAR1; experiment: Phenethylamine in Taar1-/- mice and wild-type littermates; format: in vivo; settings: Taar1-/- mice vs wild-type littermates, phenethylamine 10 mg/kg, p<0.05
Protocol: as §4, §5
Taar1 (NM_053205) knockout mouse model (C57Bl/6J) was generated by CRISPR/Cas-mediated genome engineering. All the Taar1 KO mice and their wildtype littermates were genotyped using PCR and Southern blot [F1: […] (SEQ ID NO:3), R1: […] (SEQ ID NO:4), R2: […] (SEQ ID NO:5)]. The product size of F1 and R1 is 989 bp while the product size of F1 and R2 is 625 bp. […]

[7] = serum of phenethylamine-treated mice, FIG. 5A

T2 sequence (Q923Y8 whole entry): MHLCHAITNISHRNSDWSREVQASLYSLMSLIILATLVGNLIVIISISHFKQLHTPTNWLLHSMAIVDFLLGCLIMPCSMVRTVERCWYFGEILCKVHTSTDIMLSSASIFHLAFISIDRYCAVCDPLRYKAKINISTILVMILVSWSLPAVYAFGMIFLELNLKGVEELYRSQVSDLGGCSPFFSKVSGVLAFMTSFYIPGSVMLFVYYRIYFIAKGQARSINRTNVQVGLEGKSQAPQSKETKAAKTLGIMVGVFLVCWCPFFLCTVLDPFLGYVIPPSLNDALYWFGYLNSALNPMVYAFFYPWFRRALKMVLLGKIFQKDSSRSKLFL
T1 sequence (Q13639 whole entry): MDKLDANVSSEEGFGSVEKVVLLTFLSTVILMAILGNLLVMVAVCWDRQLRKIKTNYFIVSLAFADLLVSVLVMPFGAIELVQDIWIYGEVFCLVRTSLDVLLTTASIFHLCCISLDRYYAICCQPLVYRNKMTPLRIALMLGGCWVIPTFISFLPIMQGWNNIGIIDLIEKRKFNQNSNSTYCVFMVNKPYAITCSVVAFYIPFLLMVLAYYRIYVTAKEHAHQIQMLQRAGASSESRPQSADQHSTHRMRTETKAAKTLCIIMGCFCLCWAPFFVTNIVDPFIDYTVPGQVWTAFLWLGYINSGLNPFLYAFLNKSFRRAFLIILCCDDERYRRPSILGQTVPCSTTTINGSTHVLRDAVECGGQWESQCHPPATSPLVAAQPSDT

Compound: indole acetic acid
5-HT levels in QGP-1 cells (precursors and metabolites) (QGP-1 cells): did not change the 5-HT levels

Compound: N[C@@H](Cc1c[nH]c2ccccc12)C(=O)O [tryptophan]
5-HT levels in QGP-1 cells (precursors and metabolites) (QGP-1 cells): did not change the 5-HT levels

Compound: N[C@@H](Cc1ccccc1)C(=O)O [phenylalanine]
5-HT levels in QGP-1 cells (precursors and metabolites) (QGP-1 cells): did not change the 5-HT levels

5-HT levels stimulated by phenethylamine or tryptamine (5-HTR4): did not restore 5-HT levels
Compound: CCCCN1CCC(CNC(=O)c2c3n(c4ccccc24)CCCO3)CC1 [Piboserod]
tryptamine-stimulated 5-HT production (5-HTR4): modest reduction of tryptamine-stimulated 5-HT production

Compound: CCOc1cccc(NC(=O)c2ccc(N3CCCC3)c(C(F)(F)F)c2)c1 [EPPTB, N-(3-ethoxy-phenyl)-4-pyrrolidin-1-yl-3-trifluoromethyl-benzamide]
phenethylamine-induced 5-HT production (TAAR1 [1]; mice): suppressed | phenethylamine-induced 5-HTP/Trp and 5-HT/5-HTP ratios (TAAR1 [1]; mice): inhibited by EPPTB treatment | phenethylamine-induced GI transit acceleration (TAAR1 [1]; mice): suppressed | phenethylamine-induced colonic secretion increase (TAAR1 [1]; mice): suppressed | phenethylamine-induced increased levels of serum 5-HTP (TAAR1 [1]; mice): inhibited by EPPTB treatment | phenethylamine-induced activation of PKA and CaMKII (TAAR1 [1]; proximal colonic tissues of mice): inhibited | phenethylamine-induced 5-HT elevation in mice intestine tissues cultured ex vivo (TAAR1 [2]): suppressed | R. gnavus-induced 5-HT elevation in serum (TAAR1 [3]): suppressed by EPPTB treatment | R. gnavus-induced accelerated GI transit (TAAR1 [3]): suppressed by EPPTB treatment | R. gnavus-induced increased fecal water content (TAAR1 [3]): suppressed by EPPTB treatment | pathological changes induced by transplantation of IBS-D fecal microbiota (colonic 5-HT, GI transit, defecation frequency) (TAAR1 [4]): largely suppressed

Compound: O=C(O)Cc1ccccc1 [phenylacetic acid]
5-HT levels in QGP-1 cells (precursors and metabolites) (QGP-1 cells): did not change the 5-HT levels

Compound: NCCc1ccccc1 [phenethylamine]
5-HT production in mouse intestinal tissues (mouse intestinal tissues): significantly enhanced 5-HT production | 5-HT production in human colonic tissues (human colonic tissues): significantly enhanced 5-HT production | circulating 5-HTP levels (5-HT production; mice, 2, 5 and 10 mg/kg, FIG. 11A-C): increase in circulating 5-HTP levels in mice in a dose-dependent manner | GI transit (5-HT production): accelerated GI transit | fecal water content (5-HT production): increased fecal water content | serum and intestinal 5-HT levels (5-HT production): significantly elevated serum and intestinal 5-HT levels | 5-HIAA/5-HT ratio (5-HT production; [7]): but not the 5-HIAA/5-HT ratio, were increased | 5-HT/5-HTP ratio (5-HT production; [7]): increased | 5-HTP/Trp ratio (5-HT production; [7]): increased | Phenethylamine level, Concentration ([5]; Duodenum, 15 min): 1082 µg/g | Phenethylamine level, Concentration ([5]; Luminal content in duodenum, 15 min): 1245 µg/g | Phenethylamine level, Concentration ([5]; Luminal content in duodenum, 30 min): 1200 µg/g | concentration at 0 min ([5]; luminal content of duodenum, Luminal content in duodenum): 3000 ng/g | concentration at 0 min ([5]; luminal content of ileum, Luminal content in ileum): 1670 ng/g | concentration at 15 min ([5]; luminal content of ileum, Luminal content in ileum, 15 min): 29700 ng/g | concentration at 30 min ([5]; luminal content of ileum, Luminal content in ileum, 30 min): 9300 ng/g | concentration at 0 min ([5]; luminal content of proximal colon, Luminal content in proximal colon): 3700 ng/g | concentration at 15 min ([5]; luminal content of proximal colon, Luminal content in proximal colon, 15 min): 112000 ng/g | concentration at 30 min ([5]; luminal content of proximal colon, Luminal content in proximal colon, 30 min): 58900 ng/g | concentration at 0 min ([5]; Duodenum): 230 ng/g | concentration at 30 min ([5]; Duodenum, 30 min): 879000 ng/g | concentration at 0 min ([5]; Ileum): 240 ng/g | concentration at 15 min ([5]; Ileum, 15 min): 24000 ng/g | concentration at 30 min ([5]; Ileum, 30 min): 8000 ng/g | concentration at 0 min ([5]; Proximal colon): 12000 ng/g | concentration at 15 min ([5]; Proximal colon, 15 min): 116000 ng/g | concentration at 30 min ([5]; Proximal colon, 30 min): 38000 ng/g | phosphorylation of PKA and CaMKII (PKA and CaMKII): an increase in the phosphorylation of these proteins | phenethylamine-induced changes in 5-HT production, GI transit and secretion under genetic ablation of TAAR1 (TAAR1 [6]): abolished phenethylamine-induced changes in 5-HT production, GI transit, and secretion

Compound: NCCc1c[nH]c2ccccc12 [tryptamine]
5-HT production in mouse intestinal tissues (mouse intestinal tissues): significantly enhanced 5-HT production | 5-HT production in human colonic tissues (human colonic tissues): significantly enhanced 5-HT production | GI transit (5-HT production): accelerated GI transit | fecal water content (5-HT production): increased fecal water content | serum and intestinal 5-HT levels (5-HT production): significantly elevated serum and intestinal 5-HT levels

From US20240307361A1, “METHOD FOR DIAGNOSING AND TREATING IRRITABLE BOWEL SYNDROME” (Centre for Chinese Herbal Medicine Drug Development Limited, priority 2023, published 2024)
